The source of these data is ChEMBL document CHEMBL3992542, “Synthesis of cholesteryl doxorubicin and its anti-cancer activity” (Bioorg Med Chem Lett, 2017).

The test system of series [1] is A549. The series is described as follows: Cytotoxicity against human A549 cells assessed as decrease in cell viability at 10 uM treated for 2 hrs measured after 48 hrs by MTT assay. Format: functional, cell-based.
For series [2], the system named is MDA-MB-231. The series is described as follows: Cytotoxicity against human MDA-MB-231 cells assessed as decrease in cell viability at 10 uM treated for 2 hrs measured after 48 hrs by MTT assay. Format: functional, cell-based.
In series [3] the test system is MCF7. Kind of series: Cytotoxicity against human MCF7 cells assessed as decrease in cell viability at 5 uM treated for 2 hrs measured after 48 hrs by MTT assay. Format: functional, cell-based.
Series [4] relates to HeLa. Kind of series: Cytotoxicity against human HeLa cells assessed as decrease in cell viability at 5 uM treated for 2 hrs measured after 48 hrs by MTT assay. It counts as functional, cell-based.
Series [5] concerns A549. The series is described as follows: Cytotoxicity against human A549 cells assessed as decrease in cell viability treated for 2 hrs measured after 48 hrs by MTT assay. It counts as functional, cell-based.
The subject of series [6] is MDA-MB-231. The series is described as follows: Cytotoxicity against human MDA-MB-231 cells assessed as decrease in cell viability treated for 2 hrs measured after 48 hrs by MTT assay. It counts as functional, cell-based.
The test system of series [7] is MCF7. The series is described as follows: Cytotoxicity against human MCF7 cells assessed as decrease in cell viability treated for 2 hrs measured after 48 hrs by MTT assay. Format: functional, cell-based.
The test system of series [8] is HeLa. The series is described as follows: Cytotoxicity against human HeLa cells assessed as decrease in cell viability treated for 2 hrs measured after 48 hrs by MTT assay. It counts as functional, cell-based.
Series [9] in a line: Drug uptake in human MDA-MB-231 cells at 5 uM after 2 hrs by flow cytometric analysis. Format: ADME, cell-based. To be noted: mda-mb-231, 2 h.
The nature of series [10]: Drug uptake in human HeLa cells at 5 uM after 2 hrs by flow cytometric analysis. It counts as ADME, cell-based.
Series [11] is described as follows: Drug uptake in human MDA-MB-231 cells at 5 uM after 24 hrs by flow cytometric analysis. Format: ADME, cell-based. To be noted: mda-mb-231, 24 h.
Series [12] in a line: Drug uptake in human HeLa cells at 5 uM after 24 hrs by flow cytometric analysis. It counts as ADME, cell-based.
Series [13] can be described thus: Drug uptake in nucleus of human MDA-MB-231 cells at 5 uM after 2 hrs by fluorescence microscopic method. It counts as ADME.
Series [14] can be described thus: Drug uptake in nucleus of human HeLa cells at 5 uM after 2 hrs by fluorescence microscopic method. It counts as ADME, cell-based.
A short description of series [15]: Drug uptake in nucleus of human A549 cells at 5 uM after 2 hrs by fluorescence microscopic method. Format: ADME, cell-based. Particulars: a549, 2 h.
Series [16] can be described thus: Drug uptake in nucleus of human MDA-MB-231 cells at 5 uM after 24 hrs by fluorescence microscopic method. It counts as ADME.
Series [17] can be described thus: Drug uptake in nucleus of human HeLa cells at 5 uM after 24 hrs by fluorescence microscopic method. It counts as ADME, cell-based.
Series [18] is described as follows: Drug uptake in nucleus of human A549 cells at 5 uM after 24 hrs by fluorescence microscopic method. It counts as ADME, cell-based. Particulars: a549, 24 h.
A short description of series [19]: Drug uptake in cytoplasm of human MDA-MB-231 cells at 5 uM after 2 hrs by fluorescence microscopic method. It counts as ADME.
Series [20] can be described thus: Drug uptake in cytoplasm of human HeLa cells at 5 uM after 2 hrs by fluorescence microscopic method. It counts as ADME, cell-based.
A short description of series [21]: Drug uptake in cytoplasm of human A549 cells at 5 uM after 2 hrs by fluorescence microscopic method. It counts as ADME, cell-based. Particulars: a549, 2 h.

The structures appear in SMILES notation. Activity calls are given as the source filed them. The calls are words filed in the database; no cut-off is given here.

`COc1cccc2c1C(=O)c1c(O)c3c(c(O)c1C2=O)C[C@@](O)(C(=O)CO)C[C@@H]3O[C@H]1C[C@H](NC(=O)CCC(=O)NCCCO[C@H]2CC[C@@]3(C)C(=CC[C@H]4[C@@H]5CC[C@H]([C@H](C)CCCC(C)C)[C@@]5(C)CC[C@@H]43)C2)[C@H](O)[C@H](C)O1`: the outcome in the series on A549 [1], in the series with MDA-MB-231 [2], with MCF7 [3] and with HeLa [4] was inactive.

With `COc1cccc2c1C(=O)c1c(O)c3c(c(O)c1C2=O)C[C@@](O)(C(=O)CO)C[C@@H]3O[C@H]1C[C@H](N)[C@H](O)[C@H](C)O1` [DOXORUBICIN], the IC50 was 11.6 µM in the series on A549 [5], 14.7 µM in the series with MDA-MB-231 [6], 4.39 µM with MCF7 [7] and 7.18 µM in the series on HeLa [8]. Moreover, the Drug uptake result in [9] is given as “Active”; in series [10], “Active”; in [11], “Not Active”; in [12] it was “Not Active”; in series [13], “Active”; in [14] it was “Active”. Further, the Drug uptake entry was “Active” in series [15], “Not Active” in series [16], “Not Active” in series [17] and “Not Active” in series [18].

Take `COc1cccc2c1C(=O)c1c(O)c3c(c(O)c1C2=O)C[C@@](O)(C(=O)CO)C[C@@H]3O[C@H]1C[C@H](NC(=O)CCC(=O)NCCCNC(=O)O[C@H]2CC[C@@]3(C)C(=CC[C@H]4[C@@H]5CC[C@H]([C@H](C)CCCC(C)C)[C@@]5(C)CC[C@@H]43)C2)[C@H](O)[C@H](C)O1`: the outcome in the series with A549 [1], in the series on MDA-MB-231 [2], in the series with MCF7 [3] and with HeLa [4] was inactive.

Consider `COc1cccc2c1C(=O)c1c(O)c3c(c(O)c1C2=O)C[C@@](O)(C(=O)COC(=O)CCC(=O)NCCCO[C@H]1CC[C@@]2(C)C(=CC[C@H]4[C@@H]5CC[C@H]([C@H](C)CCCC(C)C)[C@@]5(C)CC[C@@H]42)C1)C[C@@H]3O[C@H]1C[C@H](N)[C@H](O)[C@H](C)O1`, for which the result in the series with A549 [1], with MDA-MB-231 [2], in the series on MCF7 [3] and in the series on HeLa [4] was Active. In addition, the IC50 in the series with A549 [5] was found to be 11.2 µM; in the series on MDA-MB-231 [6] it was 21.6 µM; in the series with MCF7 [7], 9.94 µM; with HeLa [8], 27.9 µM. The Drug uptake entry in series [11], in [12], in series [19], in [20], in series [21] and in series [16] was “Active” each time. Moreover, the Drug uptake result in series [17] and in series [18] was “Active” each time.

In the case of `COc1cccc2c1C(=O)c1c(O)c3c(c(O)c1C2=O)C[C@@](O)(C(=O)COC(=O)CCC(=O)NCCCNC(=O)O[C@H]1CC[C@@]2(C)C(=CC[C@H]4[C@@H]5CC[C@H]([C@H](C)CCCC(C)C)[C@@]5(C)CC[C@@H]42)C1)C[C@@H]3O[C@H]1C[C@H](N)[C@H](O)[C@H](C)O1`, the outcome in the series with A549 [1], in the series on MDA-MB-231 [2], with MCF7 [3] and in the series on HeLa [4] was Active. The IC50 was 8.03 µM in the series with A549 [5], 16.4 µM in the series on MDA-MB-231 [6], 9.69 µM in the series on MCF7 [7] and 8.03 µM in the series on HeLa [8]. Further, the Drug uptake result in series [11] and in series [12] was “Not Active” throughout.
